What all share (type): physicochemical
The nature of data set [1]: Storage of Form IV in a sealed vial, checked by XRPD. As to conditions: kept in a sealed vial at ambient temperature. The source says: Form IV was obtained by keeping Form VI in water at ambient temperature for 3 weeks.
Data set [2] is described as follows: Thermogravimetric analysis (TGA) of Form I, dehydration. As to conditions: under nitrogen purge, 10° C./min. The procedure:
Thermogravimetric analysis (TGA) data was obtained using 2.01 mg PMPA Form I and was heated at a rate of 10° C./min over the range of 25 to 350° C. The solids lost about 6.1% water below 100° C., and the loss is very close to the theoretical water content of 5.9% for PMPA monohydrate.

A short description of data set [3]: XRPD patterns during heating (70, 80, 90° C.), form transition. As to conditions: XRPD patterns at 70, 80, and 90° C. during the heating period.

Take `C[C@H](Cn1cnc2c(N)ncnc21)OCP(=O)(O)O` [Form IV, (R)-9-[2-(phosphonomethoxy)propyl]adenine]: the “change of sample by XRPD analysis on storage” value in data set [1] was “did not change”.

For the compound `C[C@H](Cn1cnc2c(N)ncnc21)OCP(=O)(O)O` [Form I, (R)-9-[2-(phosphonomethoxy)propyl]adenine], the “dehydration temperature (TGA)” value in data set [2] is “about 50 °C”. Besides, the “transition from monohydrate (Form I) to an anhydrous form” value in data set [3] is “around 80 °C”.

Source of the values: patent US9487546B2, “Solid forms of tenofovir” (Gilead Sciences, Inc., priority 2014, dated 2016).
